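Interpolation was linear, between the two tested concentrations surrounding the appropriate level; five concentrations were tested over 48 hours in 96-well plates. GI50 is the concentration that inhibits growth by half. TGI marks complete inhibition of growth.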
Assays:
Experiment in all cases: DTP human tumour cell line panel, 48 h
BT-549 breast = test system: BT-549 breast
LOX IMVI melanoma = test system: LOX IMVI melanoma
OVCAR-3 ovarian = test system: OVCAR-3 ovarian
HL-60(TB) leukemia = test system: HL-60(TB) leukemia
SK-OV-3 ovarian = test system: SK-OV-3 ovarian
ACHN renal = test system: ACHN renal
KM12 colon = test system: KM12 colon
MALME-3M melanoma = test system: MALME-3M melanoma
SF-295 CNS = test system: SF-295 CNS
MDA-N = test system: MDA-N

Row | SMILES | TGI (BT-549 breast) [µM] | TGI (LOX IMVI melanoma) [µM] | TGI (OVCAR-3 ovarian) [µM] | TGI (HL-60(TB) leukemia) [µM] | TGI (SK-OV-3 ovarian) [µM] | TGI (ACHN renal) [µM] | TGI (KM12 colon) [µM] | TGI (MALME-3M melanoma) [µM] | TGI (SF-295 CNS) [µM] | TGI (MDA-N) [µM] | GI50 (LOX IMVI melanoma) [µM] | GI50 (OVCAR-3 ovarian) [µM] | GI50 (SK-OV-3 ovarian) [µM] | GI50 (ACHN renal) [µM] | GI50 (KM12 colon) [µM] | GI50 (MALME-3M melanoma) [µM] | GI50 (SF-295 CNS) [µM] | GI50 (MDA-N) [µM] | GI50 (BT-549 breast) [µM]
1 | COc1cc(/C=C2\CCc3cc(OC)c(OC)cc3C2=O)cc(OC)c1 | 65.8 | 30.9 | > 42 | > 24 | > 100 | > 100 | > 51.7 | > 100 | > 25.1 |  |  |  |  |  |  |  |  |  | 
2 | N#C[C@](CO)(NC(=O)OCc1ccccc1)C(F)F | > 100 | > 100 | > 100 | > 100 | > 100 | > 100 | > 100 | > 100 | > 100 |  |  |  |  |  |  |  |  |  | 
3 | Cc1ccc(C2=Nc3ccccc3NC(=O)C2)cc1 |  | > 100 | > 100 | > 100 | > 100 | > 100 | > 100 | > 100 | > 100 |  |  |  |  |  |  |  |  |  | 
4 | FC(F)(F)C1(C(F)(F)F)OC(Cl)(Cl)C(Cl)(Cl)O1 | > 10 | > 10 | > 10 |  | > 10 | > 10 | > 10 | > 10 | > 10 | > 10 |  |  |  |  |  |  |  |  | 
5 | CCOC(=O)NC(N(C)C(C(C)C)P(=O)(OCC)OCC)(C(F)(F)F)C(F)(F)F (stereo not given) |  | > 100 | > 100 | > 100 |  | > 100 | > 100 | > 100 | > 100 | > 100 |  |  |  |  |  |  |  |  | 
6 | CC1CSc2nc3[nH]c(=S)[nH]c3c(=O)n2C1 (stereo not given) | > 100 | > 100 | > 100 | > 100 | > 100 | > 100 | > 100 | > 100 | > 100 |  |  |  |  |  |  |  |  |  | 
7 | C[C@@H]1CCN(C(=O)CC#N)C[C@@H]1N(C)c1ncnc2[nH]ccc12 |  | > 100 | > 100 |  | > 100 | > 100 | > 100 | > 100 | > 100 |  | > 100 | > 100 | 90.9 | 57.2 | 34 | 82.5 | > 100 |  | 
8 | O/N=C1\CC2(N3CCOCC3)CCC1(Cc1ccccc1)CC2 |  | > 100 | > 100 | > 100 | 83 | 63.4 | > 100 | > 100 | 61.2 | > 100 |  |  |  |  |  |  |  |  | 
9 | Cn1c2c(c3ccccc31)CC(=O)N1CCCCC1C21OCCO1 (stereo not given) | > 100 |  | > 100 |  | > 100 | > 100 | > 100 | > 100 | > 100 | > 100 |  |  |  |  |  |  |  |  | 
10 | CCN(CC)C(=S)N/N=C(\C)c1ccccc1O |  | 77.4 | > 100 | > 100 | 79 | 61.4 | > 100 | > 100 | > 100 |  |  |  |  |  |  |  |  |  | 
11 | O=C(NCCCCNCCCNC(=O)C(F)(F)F)C(F)(F)F | > 100 |  | > 100 | > 100 | 65.5 | > 100 | > 100 |  | > 100 |  |  |  |  |  |  |  |  |  | 
12 | O=[N+]([O-])C(=C/C1CCCCC1)/C(=C\C1CCCCC1)[N+](=O)[O-] | 12.5 | 4.94 | 31.6 |  | 42.7 | 10.7 | 29.8 | 6.69 | 32.8 |  |  |  |  |  |  |  |  |  | 
13 | COc1ccccc1/C=C1/Sc2scc(CC(=O)Nc3ccccc3)[n+]2C1=O | 93.2 | > 100 | 43.4 | 47.1 | 71.7 | > 100 | > 100 |  | > 100 | 69.9 |  |  |  |  |  |  |  |  | 
14 | COc1cc2cnc3c(c2cc1OC)Cc1cc2c(cc1-3)OCO2 | 50.2 | > 100 |  |  | 26 | 19.4 | > 100 | 74.9 | > 37.6 | > 100 | 0.576 |  | 0.0203 | < 0.0143 | < 0.01 | < 0.01 | < 0.01 | > 100 | 0.391
15 | CCCN(CCC)C(=O)Cc1c2n(c3ccccc13)Cc1ccccc1-2 |  | > 100 | > 100 | > 100 | > 100 | > 100 | > 100 | > 100 | > 100 |  |  |  |  |  |  |  |  |  | 
16 | CNS(=O)(=O)NN(C)S(=O)(=O)c1ccc(Br)cc1 |  | > 100 | > 100 | > 100 |  | > 100 | > 100 | > 100 | > 100 |  |  |  |  |  |  |  |  |  | 
17 | N#Cc1nc(Cc2ccccc2)oc1N | > 100 | > 100 | > 100 |  | > 100 | > 100 | > 100 | > 100 | > 100 | > 100 |  |  |  |  |  |  |  |  | 
18 | Cc1cc2nc3c(C(O)CO)nn(-c4ccccc4)c3nc2cc1C (stereo not given) | 42.8 | 66.3 | 35.1 | 45.8 |  | 32.1 | 33.4 |  | 35.7 | 40.6 |  |  |  |  |  |  |  |  | 
19 | Cc1[nH]n(-c2nc(O)c(C)c(=O)[nH]2)c(=O)c1CCO | > 100 |  |  | > 100 | > 100 | > 100 | > 100 | > 100 | > 100 | > 100 |  |  |  |  |  |  |  |  | 
20 | O=C(CN=C(CN(c1ccccc1)c1ccccc1)Oc1c([N+](=O)[O-])cc([N+](=O)[O-])cc1[N+](=O)[O-])N1CCNCC1 | > 100 |  | > 100 | > 100 | > 100 | > 100 | > 100 | > 100 | > 100 | > 100 |  |  |  |  |  |  |  |  | 
21 | Cn1c2ccccc2n2c3ccccc3c(=S)c(C#N)c12 | > 100 | > 100 | > 100 | > 100 | > 100 | > 100 | > 100 |  | > 100 | > 100 |  |  |  |  |  |  |  |  | 
22 | CCOC(=O)c1cc2cc(CSc3ccccc3)ccc2oc1=O | > 100 | > 100 | > 100 |  | > 100 | > 100 | > 100 | > 100 | > 100 | > 100 |  |  |  |  |  |  |  |  | 
23 | CC(=O)/C=C/c1c[nH]c(=O)[nH]c1=O |  | 354 | 608 | 528 | 703 |  | 439 | 444 | 751 |  |  |  |  |  |  |  |  |  | 
